Key:
[1] = system: rat liver cDNAs SEQ ID NOs: 1-61; assay type: in vivo, Han/Wistar rat; conditions: Strain HW, Sex F
[2] = system: rat liver cDNAs SEQ ID NOs: 1-61; assay type: in vivo, Han/Wistar rat; conditions: Strain HW
[3] = system: rat liver cDNAs SEQ ID NOs: 62-202; assay: Abundance of cDNA clones in toxin-treated rat liver cDNA libraries (transcript imaging), Sprague-Dawley; assay type: in vivo; conditions: Strain SD
Experimental: Columns 1 and 2 show the SEQ ID NO and Clone ID of the rat cDNA clone, respectively.
Abundance of a clone was determined by counting the number of clones present in a master cluster.
Abundance of a particular cDNA in the library profile was determined by summing the total number of copies of the clones present in the master cluster in that library.

CC(C)OC(=O)C(C)(C)Oc1ccc(C(=O)c2ccc(Cl)cc2)cc1 [Feno, fenofibrate]
Maximum Abundance, SEQ ID NO 13, Clone ID 700135749 [1]: 4
Maximum Abundance, SEQ ID NO 20, Clone ID 700063569 [2]: 3
Maximum Abundance, SEQ ID NO 30, Clone ID 700140375 [2]: 3
Maximum Abundance, SEQ ID NO 31, Clone ID 700140450 [2]: 8
Maximum Abundance, SEQ ID NO 35, Clone ID 700179766 [2]: 3
Maximum Abundance, SEQ ID NO 37, Clone ID 700182016 [2]: 3
Maximum Abundance, SEQ ID NO 38, Clone ID 700185871 [2]: 3
Maximum Abundance, SEQ ID NO 39, Clone ID 700198357 [2]: 3
Maximum Abundance, SEQ ID NO 40, Clone ID 700230123 [2]: 4
Maximum Abundance, SEQ ID NO 42, Clone ID 700250877 [2]: 3
Maximum Abundance, SEQ ID NO 45, Clone ID 700305380 [2]: 4
Maximum Abundance, SEQ ID NO 49, Clone ID 700478138 [2]: 5
Maximum Abundance, SEQ ID NO 53, Clone ID 700818852 [2]: 5
Maximum Abundance, SEQ ID NO 54, Clone ID 700937735 [2]: 8
Maximum Abundance, SEQ ID NO 55, Clone ID 701197728 [2]: 3
Maximum Abundance, SEQ ID NO 60, Clone ID 701597659 [2]: 3

NN [Hydra, hydrazine]
Maximum Abundance, SEQ ID NO 12, Clone ID 700062506 [1]: 3
Maximum Abundance, SEQ ID NO 13, Clone ID 700135749 [1]: 4
Maximum Abundance, SEQ ID NO 17, Clone ID 700059927 [2]: 4
Maximum Abundance, SEQ ID NO 23, Clone ID 700067778 [2]: 3
Maximum Abundance, SEQ ID NO 24, Clone ID 700123633 [2]: 3
Maximum Abundance, SEQ ID NO 28, Clone ID 700135850 [2]: 3
Maximum Abundance, SEQ ID NO 32, Clone ID 700144406 [2]: 4
Maximum Abundance, SEQ ID NO 33, Clone ID 700175249 [2]: 7
Maximum Abundance, SEQ ID NO 61, Clone ID 701637512 [2]: 4

c1ccc2c(c1)cc1ccc3cccc4ccc2c1c34 [benzo(a)pyrene]
Maximum Abundance, SEQ ID NO 76, Clone ID 700059750 [3]: 3
Maximum Abundance, SEQ ID NO 77, Clone ID 700123903 [3]: 3
Maximum Abundance, SEQ ID NO 78, Clone ID 700135554 [3]: 3
Maximum Abundance, SEQ ID NO 79, Clone ID 700175783 [3]: 4
Maximum Abundance, SEQ ID NO 80, Clone ID 700176825 [3]: 4
Maximum Abundance, SEQ ID NO 81, Clone ID 700177142 [3]: 4
Maximum Abundance, SEQ ID NO 82, Clone ID 700185570 [3]: 3
Maximum Abundance, SEQ ID NO 83, Clone ID 700244879 [3]: 3
Maximum Abundance, SEQ ID NO 84, Clone ID 700246085 [3]: 4
Maximum Abundance, SEQ ID NO 85, Clone ID 700302152 [3]: 10
Maximum Abundance, SEQ ID NO 86, Clone ID 700305538 [3]: 13
Maximum Abundance, SEQ ID NO 87, Clone ID 700307329 [3]: 3
Maximum Abundance, SEQ ID NO 88, Clone ID 700323326 [3]: 4
Maximum Abundance, SEQ ID NO 89, Clone ID 700328990 [3]: 4
Maximum Abundance, SEQ ID NO 90, Clone ID 700330391 [3]: 3
Maximum Abundance, SEQ ID NO 91, Clone ID 700363445 [3]: 6
Maximum Abundance, SEQ ID NO 92, Clone ID 700480903 [3]: 3
Maximum Abundance, SEQ ID NO 93, Clone ID 700482908 [3]: 3
Maximum Abundance, SEQ ID NO 94, Clone ID 700935261 [3]: 3
Maximum Abundance, SEQ ID NO 95, Clone ID 700939101 [3]: 3
Maximum Abundance, SEQ ID NO 96, Clone ID 700950626 [3]: 3
Maximum Abundance, SEQ ID NO 97, Clone ID 701316308 [3]: 3
Maximum Abundance, SEQ ID NO 98, Clone ID 701316810 [3]: 3
Maximum Abundance, SEQ ID NO 99, Clone ID 701327688 [3]: 3
Maximum Abundance, SEQ ID NO 100, Clone ID 701337820 [3]: 3
Maximum Abundance, SEQ ID NO 101, Clone ID 701432276 [3]: 4
Maximum Abundance, SEQ ID NO 102, Clone ID 701432317 [3]: 3
Maximum Abundance, SEQ ID NO 103, Clone ID 701472012 [3]: 3
Maximum Abundance, SEQ ID NO 104, Clone ID 701472036 [3]: 3
Maximum Abundance, SEQ ID NO 105, Clone ID 701517108 [3]: 3
Maximum Abundance, SEQ ID NO 106, Clone ID 701710808 [3]: 4
Maximum Abundance, SEQ ID NO 107, Clone ID 701241446 [3]: 3
Maximum Abundance, SEQ ID NO 108, Clone ID 701711993 [3]: 5
Maximum Abundance, SEQ ID NO 110, Clone ID 700192259 [3]: 5
Maximum Abundance, SEQ ID NO 111, Clone ID 700269330 [3]: 4
Maximum Abundance, SEQ ID NO 112, Clone ID 701317696 [3]: 5
Maximum Abundance, SEQ ID NO 186, Clone ID 700068662 [3]: 6
Maximum Abundance, SEQ ID NO 187, Clone ID 700933309 [3]: 5
Maximum Abundance, SEQ ID NO 201, Clone ID 700062503 [3]: 3
Maximum Abundance, SEQ ID NO 202, Clone ID 700490891 [3]: 4
Maximum Abundance, SEQ ID NO 74, Clone ID 700137978 ([3]; Sex F): 7
Maximum Abundance, SEQ ID NO 75, Clone ID 701709967 ([3]; Sex F): 4
Maximum Abundance, SEQ ID NO 188, Clone ID 700024288 ([3]; Sex F): 2
Maximum Abundance, SEQ ID NO 190, Clone ID 700066933 ([3]; Sex F): 2
Maximum Abundance, SEQ ID NO 191, Clone ID 700146747 ([3]; Sex F): 3
Maximum Abundance, SEQ ID NO 193, Clone ID 700858043 ([3]; Sex F): 1
Maximum Abundance, SEQ ID NO 109, Clone ID 700250903 ([3]; Sex M): 11
Maximum Abundance, SEQ ID NO 196, Clone ID 700062747 ([3]; Sex M): 2
Maximum Abundance, SEQ ID NO 197, Clone ID 700124248 ([3]; Sex M): 3
Maximum Abundance, SEQ ID NO 200, Clone ID 700282789 ([3]; Sex M): 3
Maximum Abundance, SEQ ID NO 6, Clone ID 700062791 [2]: 4
Maximum Abundance, SEQ ID NO 7, Clone ID 700250279 [2]: 6
Maximum Abundance, SEQ ID NO 8, Clone ID 700312413 [2]: 4
Maximum Abundance, SEQ ID NO 9, Clone ID 700308908 [2]: 6

Reference: US20030165854A1, “Marker genes responding to treatment with toxins” (priority 2000, published 2003)
